PubChem BioAssay AID1963959 (Molecular Pharmacology Branch, DTP, NCI, 2024)
pIC50: −log10 of the molar value.

System: T-47D spheroids with HUVEC/MSC, viability
Assay: Anticancer human tumor T-47D cell line growth inhibition [PI3K];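 further: spheroids exposed to agents for seven days before reading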;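 on viability, T/C: percent of DMSO vehicle control luminescence so 100% = untreated growth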
Conditions: for viability, T/C: stronger effect = lower value
In short: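 We assembled tumor spheroids that included a stromal compartment of HUVEC and MSCs, then exposed them to targeted agents alone and together with PI3K pathway inhibitors. Concentration series descended by half-log from clinically achievable Cmax levels. Viability served as the endpoint.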

[1] = curve of first compound, second compound 0.00316 µM
[2] = curve of first compound, second compound 0.01 µM
[3] = curve of first compound, second compound 0.0316 µM
[4] = curve of first compound, second compound 0.1 µM
[5] = curve of first compound, second compound 0.316 µM
[6] = curve of first compound, second compound 1 µM
[7] = second compound 0.00316 µM, first compound 0.0316 µM
[8] = second compound 0.00316 µM, first compound 0.1 µM
[9] = second compound 0.00316 µM, first compound 0.316 µM
[10] = second compound 0.00316 µM, first compound 1 µM
[11] = second compound 0.00316 µM, first compound 3.16 µM
[12] = second compound 0.00316 µM, first compound 10 µM
[13] = second compound 0.01 µM, first compound 0.0316 µM
[14] = second compound 0.01 µM, first compound 0.1 µM
[15] = second compound 0.01 µM, first compound 0.316 µM
[16] = second compound 0.01 µM, first compound 1 µM
[17] = second compound 0.01 µM, first compound 3.16 µM
[18] = second compound 0.01 µM, first compound 10 µM
[19] = second compound 0.0316 µM, first compound 0.0316 µM
[20] = second compound 0.0316 µM, first compound 0.1 µM
[21] = second compound 0.0316 µM, first compound 0.316 µM
[22] = second compound 0.0316 µM, first compound 1 µM
[23] = second compound 0.0316 µM, first compound 3.16 µM
[24] = second compound 0.0316 µM, first compound 10 µM
[25] = second compound 0.1 µM, first compound 0.0316 µM
[26] = second compound 0.1 µM, first compound 0.1 µM
[27] = second compound 0.1 µM, first compound 0.316 µM
[28] = second compound 0.1 µM, first compound 1 µM
[29] = second compound 0.1 µM, first compound 3.16 µM
[30] = second compound 0.1 µM, first compound 10 µM
[31] = second compound 0.316 µM, first compound 0.0316 µM
[32] = second compound 0.316 µM, first compound 0.1 µM
[33] = second compound 0.316 µM, first compound 0.316 µM
[34] = second compound 0.316 µM, first compound 1 µM
[35] = second compound 0.316 µM, first compound 3.16 µM
[36] = second compound 0.316 µM, first compound 10 µM
[37] = second compound 1 µM, first compound 0.0316 µM
[38] = second compound 1 µM, first compound 0.1 µM
[39] = second compound 1 µM, first compound 0.316 µM
[40] = second compound 1 µM, first compound 1 µM
[41] = second compound 1 µM, first compound 3.16 µM
[42] = second compound 1 µM, first compound 10 µM

## C[C@@H](NC(=O)c1ncnc(N)c1Cl)c1ncc(C(=O)Nc2cc(C(F)(F)F)c(Cl)cn2)s1 + CC(Nc1ccc2c(c1)OCCn1cc(N3C(=O)OCC3C(F)F)nc1-2)C(N)=O
[1]
  pIC50: < 5.00
[2]
  pIC50: < 5.00
[3]
  pIC50: < 5.00
[4]
  pIC50: < 5.00
[5]
  pIC50: < 5.00
[6]
  pIC50: < 5.00
[7]
  viability, T/C: 110%
[8]
  viability, T/C: 92.2%
[9]
  viability, T/C: 87.9%
[10]
  viability, T/C: 79.2%
[11]
  viability, T/C: 94.5%
[12]
  viability, T/C: 99.3%
[13]
  viability, T/C: 104%
[14]
  viability, T/C: 85.3%
[15]
  viability, T/C: 87.4%
[16]
  viability, T/C: 83.3%
[17]
  viability, T/C: 113%
[18]
  viability, T/C: 101%
[19]
  viability, T/C: 95.2%
[20]
  viability, T/C: 87.3%
[21]
  viability, T/C: 83.8%
[22]
  viability, T/C: 86.2%
[23]
  viability, T/C: 91.4%
[24]
  viability, T/C: 94.7%
[25]
  viability, T/C: 79.8%
[26]
  viability, T/C: 82%
[27]
  viability, T/C: 83.3%
[28]
  viability, T/C: 97.1%
[29]
  viability, T/C: 97.4%
[30]
  viability, T/C: 94.4%
[31]
  viability, T/C: 69.4%
[32]
  viability, T/C: 79.6%
[33]
  viability, T/C: 75.2%
[34]
  viability, T/C: 69.8%
[35]
  viability, T/C: 71.8%
[36]
  viability, T/C: 74.3%
[37]
  viability, T/C: 52.9%
[38]
  viability, T/C: 53.4%
[39]
  viability, T/C: 65%
[40]
  viability, T/C: 57.9%
[41]
  viability, T/C: 62.3%
[42]
  viability, T/C: 65.8%

## Cn1ncc(Cl)c1-c1cc(C(=O)NC(CN)Cc2cccc(F)c2)sc1Cl (configuration not stated)
Compound 0.0316 µM
  viability, T/C: 102% [middle of 4 runs]
Compound 0.316 µM
  viability, T/C: 79.4% [middle of 4 runs]
Compound 1 µM
  viability, T/C: 81.8% [middle of 4 runs]
Compound 3.16 µM
  viability, T/C: 70.3% [middle of 4 runs]
Compound 10 µM
  viability, T/C: 89% [middle of 4 runs]
Curve of compound
  pIC50: < 5.00

## Cn1ncnc1[C@H]1c2n[nH]c(=O)c3cc(F)cc(c23)N[C@@H]1c1ccc(F)cc1 + Cc1nc(NC(=O)N2CCCC2C(N)=O)sc1-c1ccnc(C(C)(C)C(F)(F)F)c1
[3]
  pIC50: < 7.00
[4]
  pIC50: < 7.00
[5]
  pIC50: < 7.00
[6]
  pIC50: < 7.00
Curve of first compound, second compound 3.16 µM
  pIC50: < 7.00
Curve of first compound, second compound 10 µM
  pIC50: > 9.50
Second compound 0.0316 µM, first compound 0.000316 µM
  viability, T/C: 105%
Second compound 0.0316 µM, first compound 0.001 µM
  viability, T/C: 103%
Second compound 0.0316 µM, first compound 0.00316 µM
  viability, T/C: 99%
Second compound 0.0316 µM, first compound 0.01 µM
  viability, T/C: 99.9%
[19]
  viability, T/C: 86.8%
[20]
  viability, T/C: 98.8%
Second compound 0.1 µM, first compound 0.000316 µM
  viability, T/C: 106%
Second compound 0.1 µM, first compound 0.001 µM
  viability, T/C: 96.3%
Second compound 0.1 µM, first compound 0.00316 µM
  viability, T/C: 95.5%
Second compound 0.1 µM, first compound 0.01 µM
  viability, T/C: 106%
[25]
  viability, T/C: 99.5%
[26]
  viability, T/C: 86.7%
Second compound 0.316 µM, first compound 0.000316 µM
  viability, T/C: 105%
Second compound 0.316 µM, first compound 0.001 µM
  viability, T/C: 97.5%
Second compound 0.316 µM, first compound 0.00316 µM
  viability, T/C: 105%
Second compound 0.316 µM, first compound 0.01 µM
  viability, T/C: 87%
[31]
  viability, T/C: 94.5%
[32]
  viability, T/C: 86.5%
Second compound 1 µM, first compound 0.000316 µM
  viability, T/C: 101%
Second compound 1 µM, first compound 0.001 µM
  viability, T/C: 89.3%
Second compound 1 µM, first compound 0.00316 µM
  viability, T/C: 85.1%
Second compound 1 µM, first compound 0.01 µM
  viability, T/C: 89.4%
[37]
  viability, T/C: 87.7%
[38]
  viability, T/C: 90.5%
Second compound 3.16 µM, first compound 0.000316 µM
  viability, T/C: 65.1%
Second compound 3.16 µM, first compound 0.001 µM
  viability, T/C: 70.8%
Second compound 3.16 µM, first compound 0.00316 µM
  viability, T/C: 63.4%
Second compound 3.16 µM, first compound 0.01 µM
  viability, T/C: 63.6%
Second compound 3.16 µM, first compound 0.0316 µM
  viability, T/C: 71.5%
Second compound 3.16 µM, first compound 0.1 µM
  viability, T/C: 69.2%
Second compound 10 µM, first compound 0.000316 µM
  viability, T/C: 39%
Second compound 10 µM, first compound 0.001 µM
  viability, T/C: 34.8%
Second compound 10 µM, first compound 0.00316 µM
  viability, T/C: 36.8%
Second compound 10 µM, first compound 0.01 µM
  viability, T/C: 34.1%
Second compound 10 µM, first compound 0.0316 µM
  viability, T/C: 32.9%
Second compound 10 µM, first compound 0.1 µM
  viability, T/C: 38.9%

## CCCS(=O)(=O)Nc1ccc(F)c(C(=O)c2c[nH]c3ncc(-c4ccc(Cl)cc4)cc23)c1F + CC(Nc1ccc2c(c1)OCCn1cc(N3C(=O)OCC3C(F)F)nc1-2)C(N)=O
[1]
  pIC50: 5.04
[2]
  pIC50: 5.02
[3]
  pIC50: 5.07
[4]
  pIC50: 5.16
[5]
  pIC50: 5.30
[6]
  pIC50: 5.49
[7]
  viability, T/C: 99.3%
[8]
  viability, T/C: 87.8%
[9]
  viability, T/C: 108%
[10]
  viability, T/C: 79.2%
[11]
  viability, T/C: 103%
[12]
  viability, T/C: 46.3%
[13]
  viability, T/C: 99%
[14]
  viability, T/C: 89.1%
[15]
  viability, T/C: 98.5%
[16]
  viability, T/C: 70.7%
[17]
  viability, T/C: 87.8%
[18]
  viability, T/C: 47%
[19]
  viability, T/C: 80.3%
[20]
  viability, T/C: 90.2%
[21]
  viability, T/C: 102%
[22]
  viability, T/C: 97.3%
[23]
  viability, T/C: 98.7%
[24]
  viability, T/C: 43%
[25]
  viability, T/C: 83.2%
[26]
  viability, T/C: 82.8%
[27]
  viability, T/C: 97.7%
[28]
  viability, T/C: 91.3%
[29]
  viability, T/C: 74.2%
[30]
  viability, T/C: 38.9%
[31]
  viability, T/C: 69.3%
[32]
  viability, T/C: 79.3%
[33]
  viability, T/C: 66.9%
[34]
  viability, T/C: 70.9%
[35]
  viability, T/C: 55.8%
[36]
  viability, T/C: 41.4%
[37]
  viability, T/C: 48.5%
[38]
  viability, T/C: 55.1%
[39]
  viability, T/C: 69.4%
[40]
  viability, T/C: 51.5%
[41]
  viability, T/C: 49.1%
[42]
  viability, T/C: 35.5%
